Test results from patent US20250152688A1 (priority 2021, published 2025).
Entries after “also recorded” stand apart in the source; their conditions may differ. Read-outs that look alike come from different tables or passages of the source.

Experiments:
[1] = tested on: peripheral blood mononuclear cells (PBMCs); assay type: in vivo, human; details: for Patients with immune response against the peptide / UV1 mix: 51 evaluable patients vaccinated with UV1 (NSCLC, prostate cancer, malignant melanoma); for Number of patients that recognised this one peptide only / Responding patients / evaluable patients: patients vaccinated with UV1; for Responding patients / evaluable patients: response against the labelled peptide / mix
[2] = tested on: T-cell clones derived from patients that responded to UV1 vaccination; assay type: cell-based, human; details: T-cell clones from UV1 responders tested with overlapping 14-mer peptides
[3] = tested on: B6.129S2-H2-Ab1tm1GruTg(HLADRA/H2-Ea,HLA-DRB1*0401/H2-Eb)1Kito strain mice; assay type: in vivo; details: HLA-DR4 mice
[4] = tested on: J76 cells transfected with UT1, a TCR specific for SEQ ID NO: 1; assay type: cell-based, human; details: 0.5, 1.5 and 5 μM (conjugates in second experiment 0.5, 1.5 and 3 μM); 24 hours; EBV cells as APC
[5] = tested on: C57BL/6 mice; assay type: in vivo; details: 1 nmol SC 3 times, 1 week intervals, blood 9 days post last administration
[6] = tested on: peripheral blood mononuclear cells (PMBCs); assay type: cell-based, human; details: for Total of positive patients over peptides sharing at least 8 amino acids with the polypeptide: GV1001 (n=4) + DC (n=3) vaccinated patients
[7] = tested on: HLA-A2/DR1 transgenic mice; assay type: in vivo; details: for Immunogenicity in HLA-A2/DR1 transgenic mice (conclusion): 16.4 nmol peptide with standard adjuvant; for Peptides above the threshold (T cell responses against individual peptides): 16.4 nmol peptide, female HLA-A2/DR1 mice (n=4), cut off = cells alone; for Peptide recognition by individual vaccinated mice (ELISpot): 16.4 nmol, mice M9-M12 GV1001 group, M13-M16 UV34 group
[8] = tested on: vaccinated individuals; details: reported in Bernhardt 2006, Inderberg-Suso 2012, Kyte 2011; cited from earlier work
[9] = tested on: transgenic HLA-A2/HLA-DR1 animals; assay type: in vivo, mice; details: Group 1: MTTE-OVA then CD29 60 μg (4.1 nmol); Group 2: UV34 14 μg (4.1 nmol) in IFA; prime-boost-boost; p=0.0286
[10] = Vaccination GV1001 + DC (n = 4 + 3)

Substance: AERLTSRVKALFSVL [p728]
- Patients with immune response against the peptide / UV1 mix [1]: 24%
- Number of patients that recognised this one peptide only [1]: one
- Responding patients / evaluable patients [1]: (12/51)

Substance: ALFSVLNYERARRP (listed as Homo sapiens) [SEQ ID NO: 12]
- HLA Class II allele, T-cell clone recognising the peptide [2]: DR12, clone 44, 38, 6

Substance: ALFSVLNYERARRPGLLGASVLGLDDIHRA [p719-20]
- Patients with immune response against the peptide / UV1 mix [1]: 65%
- Patients with immune response against the peptide / UV1 mix ([1]; listed as SEQ ID NO. 1): 65%
- Percentage of patients carrying the allele who responded to SEQ ID NO. 1 ([1]; HLA-DPB1*01:01): 14%
- Percentage of patients carrying the allele who responded to SEQ ID NO. 1 ([1]; HLA-DPB1*04:01): 64%
- Percentage of patients carrying the allele who responded to SEQ ID NO. 1 ([1]; HLA-DPB1*04:02): 71%
- Percentage of patients carrying the allele who responded to SEQ ID NO. 1 ([1]; HLA-DQB1*03:02): 46%
- Percentage of patients carrying the allele who responded to SEQ ID NO. 1 ([1]; HLA-DQB1*05:01): 67%
- Percentage of patients carrying the allele who responded to SEQ ID NO. 1 ([1]; HLA-DQB1*06:02): 72%
- Percentage of patients carrying the allele who responded to SEQ ID NO. 1 ([1]; HLA-DRB1*04:01): 50%
- Percentage of patients carrying the allele who responded to SEQ ID NO. 1 ([1]; HLA-DRB1*07:01): 90%
- Percentage of patients carrying the allele who responded to SEQ ID NO. 1 ([1]; HLA-DRB1*15:01): 89%
- Responders in 7 of the 9 most common HLA class II haplotypes ([1]; UV1-vaccinated patients): > 50%
- Number of patients that recognised this one peptide only [1]: 13
- Responding patients / evaluable patients [1]: (33/51)
- HLA Class II allele, T-cell clone recognising the peptide [2]: All clones
- Responding mice ([3]; 22 nmol dose): all mice appear to respond
- IFN-γ ELISpot spots on restimulation with SEQ ID NO: 1 ([3]; 30 μg (9 nmol) with CpG 1826 25 μg in IFA, prime boost, n=8): significant increase in the number of spots compared to cells alone
- GFP-expressing T-cells specific for SEQ ID NO: 1 (T-cell activation) [4]: activate the T cells equally well

Substance: ARRPGLLGASVLGL (listed as Homo sapiens) [SEQ ID NO: 22]
- HLA Class II allele, T-cell clone recognising the peptide [2]: DQ7, clone 8,10

Substance: ARWWWMHHNMDLIGGAKxVAAWTLKAu [HY-PADRE]
- Anti-MTTE IgG1 antibody titres (ELISA) [5]: no antibodies to the MTTE sequence

Substance: EAEVRQHREARPALL [Conjugate 713]
- No. of positive patients [6]: 4
- T-cell responses to the individual peptide (patients), counted for SEQ ID NO: 116 ([6]; Vaccination DC (n = 3)): 1
- T-cell responses to the individual peptide (patients), counted for SEQ ID NO: 116 ([6]; Vaccination GV1001 (n = 4)): 3
- T-cell responses to the individual peptide (patients), counted for SEQ ID NO: 116 [6, 10]: 4

Substance: EARPALLTSRLRFIPK [GV1001, reference compound]
- SUM of T-cell responses to peptides embedded in the polypeptide ([6]; Vaccination DC (n = 3)): 5
- SUM of T-cell responses to peptides embedded in the polypeptide ([6]; Vaccination GV1001 (n = 4)): 7
- SUM of T-cell responses to peptides embedded in the polypeptide [6, 10]: 12
- Immunogenicity in HLA-A2/DR1 transgenic mice (conclusion) [7]: marginal immune responses
- Peptides above the threshold (T cell responses against individual peptides) [7]: UV 57
- Peptide recognition by individual vaccinated mice (ELISpot) [7]: M9 and 12 did not respond to any of the tested peptides; also recorded: M11 demonstrated a marginal immune response against UV57
- Vaccinated individuals with induced immune responses [8]: at least 50%

Substance: ELYFVKVDVEGAYDT [Conjugate 726]
- No. of positive patients [6]: 2
- T-cell responses to the individual peptide (patients), counted for SEQ ID NO: 118 ([6]; Vaccination DC (n = 3)): 1
- T-cell responses to the individual peptide (patients), counted for SEQ ID NO: 118 ([6]; Vaccination GV1001 (n = 4)): 1
- T-cell responses to the individual peptide (patients), counted for SEQ ID NO: 118 [6, 10]: 2

Substance: ERARRPGLLGASVL (listed as Homo sapiens) [SEQ ID NO: 20]
- HLA Class II allele, T-cell clone recognising the peptide [2]: DQ7, clone 8,10

Substance: FIPKPDGLRPIVNMD [Conjugate 715]
- No. of positive patients [6]: 3
- T-cell responses to the individual peptide (patients), counted for SEQ ID NO: 116 ([6]; Vaccination DC (n = 3)): 2
- T-cell responses to the individual peptide (patients), counted for SEQ ID NO: 116 ([6]; Vaccination GV1001 (n = 4)): 1
- T-cell responses to the individual peptide (patients), counted for SEQ ID NO: 116 [6, 10]: 3

Substance: FSVLNYERARRPGL (listed as Homo sapiens) [SEQ ID NO: 14]
- HLA Class II allele, T-cell clone recognising the peptide [2]: p5-clone 109

Substance: GLLGASVLGLDDIH (listed as Homo sapiens) [SEQ ID NO: 26]
- HLA Class II allele, T-cell clone recognising the peptide [2]: DQ2, clone 52

Substance: LESVLNYERARRPG (LFSVLNYERARRPG; listed as Homo sapiens) [SEQ ID NO: 13]
- HLA Class II allele, T-cell clone recognising the peptide [2]: p5-clone109

Substance: LKRVQLRELSEAEVRQ [Conjugate 731]
- No. of positive patients [6]: 1
- T-cell responses to the individual peptide (patients), counted for SEQ ID NO: 116 ([6]; Vaccination GV1001 (n = 4)): 1
- T-cell responses to the individual peptide (patients), counted for SEQ ID NO: 116 [6, 10]: 1

Substance: LLGASVLGLDDIHR (listed as Homo sapiens) [SEQ ID NO: 27]
- HLA Class II allele, T-cell clone recognising the peptide [2]: DQ2, clone 52

Substance: LNYERARRPGLLGD (LNYERARRPGLLGA; listed as Homo sapiens) [SEQ ID NO: 17]
- HLA Class II allele, T-cell clone recognising the peptide [2]: p5-clone109

Substance: LSEAEVRQHREARPALLTSRLRFIPKPDGL [SEQ ID NO: 116]
- Total of positive patients over peptides sharing at least 8 amino acids with the polypeptide [6]: Total = 20
- SUM of T-cell responses to peptides embedded in the polypeptide ([6]; Vaccination DC (n = 3)): 8
- SUM of T-cell responses to peptides embedded in the polypeptide ([6]; Vaccination GV1001 (n = 4)): 12
- SUM of T-cell responses to peptides embedded in the polypeptide [6, 10]: 20
- Immunogenicity in HLA-A2/DR1 transgenic mice (conclusion) [7]: highly immunogenic
- Peptides above the threshold (T cell responses against individual peptides) [7]: UV36, UV57, UV58, UV59, UV60, UV64 and UV66
- Peptide recognition by individual vaccinated mice (ELISpot) [7]: Mouse M16 displayed marginal immune responses against UV57; also recorded: Mouse M15 responded somewhat more broadly and recognized UV58; also recorded: Cells from this mouse also responded to UV59; also recorded: Peptide UV60 was also recognized; also recorded: They both recognized UV36, UV57, UV58, UV64 and UV66; also recorded: also recognized UV59 and UV60
- Anti-MTTE antibody titers at the end of the experiment [9]: not able to mount an antibody response to the MTTE sequence

Substance: LYFVKVDVTGAYDTI [Conjugate 727]
- No. of positive patients [6]: 5
- T-cell responses to the individual peptide (patients), counted for SEQ ID NO: 118 ([6]; Vaccination DC (n = 3)): 2
- T-cell responses to the individual peptide (patients), counted for SEQ ID NO: 118 ([6]; Vaccination GV1001 (n = 4)): 3
- T-cell responses to the individual peptide (patients), counted for SEQ ID NO: 118 [6, 10]: 5

Substance: LYFVKVDVTGAYDTIPQDRLTRVIASIIKP (listed as Homo sapiens) [SEQ ID NO: 118]
- Total of positive patients over peptides sharing at least 8 amino acids with the polypeptide [6]: Total = 9
- SUM of T-cell responses to peptides embedded in the polypeptide ([6]; Vaccination DC (n = 3)): 4
- SUM of T-cell responses to peptides embedded in the polypeptide ([6]; Vaccination GV1001 (n = 4)): 5
- SUM of T-cell responses to peptides embedded in the polypeptide [6, 10]: 9

Substance: NYERARRPGLLGAS (listed as Homo sapiens) [SEQ ID NO: 18]
- HLA Class II allele, T-cell clone recognising the peptide [2]: p5-clone 109; also recorded: DQ7, clone 8

Substance: PGLLGASVLGLDDI (listed as Homo sapiens) [SEQ ID NO: 25]
- HLA Class II allele, T-cell clone recognising the peptide [2]: DQ2, clone 52

Substance: PQDRLTEVIASIIKP [Conjugate 723]
- No. of positive patients [6]: 1
- T-cell responses to the individual peptide (patients), counted for SEQ ID NO: 118 ([6]; Vaccination DC (n = 3)): 1
- T-cell responses to the individual peptide (patients), counted for SEQ ID NO: 118 [6, 10]: 1

Substance: RARRPGLLGASVLG (listed as Homo sapiens) [SEQ ID NO: 21]
- HLA Class II allele, T-cell clone recognising the peptide [2]: DQ7, clone 8,10

Substance: RPALLTSRLRFIPKP [Conjugate 714]
- No. of positive patients [6]: 7
- T-cell responses to the individual peptide (patients), counted for GV1001 ([6]; Vaccination DC (n = 3)): 3
- T-cell responses to the individual peptide (patients), counted for SEQ ID NO: 116 ([6]; Vaccination DC (n = 3)): 3
- T-cell responses to the individual peptide (patients), counted for GV1001 ([6]; Vaccination GV1001 (n = 4)): 4
- T-cell responses to the individual peptide (patients), counted for SEQ ID NO: 116 ([6]; Vaccination GV1001 (n = 4)): 4
- T-cell responses to the individual peptide (patients), counted for GV1001 [6, 10]: 7
- T-cell responses to the individual peptide (patients), counted for SEQ ID NO: 116 [6, 10]: 7

Substance: RRPGLLGASVLGLD (listed as Homo sapiens) [SEQ ID NO: 23]
- HLA Class II allele, T-cell clone recognising the peptide [2]: DQ7, clone 8,10

Substance: RTFVLRVRAQDPPPE [p725]
- Patients with immune response against the peptide / UV1 mix [1]: 39%
- Number of patients that recognised this one peptide only [1]: one
- Responding patients / evaluable patients [1]: (20/51)

Substance: SVLNYERARRPGLL (listed as Homo sapiens) [SEQ ID NO: 15]
- HLA Class II allele, T-cell clone recognising the peptide [2]: DR7, clone 4, 12, 21, 15, 92,; also recorded: p5-clone109

Substance: TSRLRFIPKPDGLRP [Conjugate 730]
- No. of positive patients [6]: 5
- T-cell responses to the individual peptide (patients), counted for GV1001 ([6]; Vaccination DC (n = 3)): 2
- T-cell responses to the individual peptide (patients), counted for SEQ ID NO: 116 ([6]; Vaccination DC (n = 3)): 2
- T-cell responses to the individual peptide (patients), counted for GV1001 ([6]; Vaccination GV1001 (n = 4)): 3
- T-cell responses to the individual peptide (patients), counted for SEQ ID NO: 116 ([6]; Vaccination GV1001 (n = 4)): 3
- T-cell responses to the individual peptide (patients), counted for GV1001 [6, 10]: 5
- T-cell responses to the individual peptide (patients), counted for SEQ ID NO: 116 [6, 10]: 5

Substance: VLNYERARRPGLIG (VLNYERARRPGLLG; listed as Homo sapiens) [SEQ ID NO: 16]
- HLA Class II allele, T-cell clone recognising the peptide [2]: DR7, clone 15, p5-clone109

Substance: VTGAYDTIPQDRLTE [Conjugate 732]
- No. of positive patients [6]: 1
- T-cell responses to the individual peptide (patients), counted for SEQ ID NO: 118 ([6]; Vaccination GV1001 (n = 4)): 1
- T-cell responses to the individual peptide (patients), counted for SEQ ID NO: 118 [6, 10]: 1

Substance: YERARRPGLLGASV (listed as Homo sapiens) [SEQ ID NO: 19]
- HLA Class II allele, T-cell clone recognising the peptide [2]: DQ7, clone 8
